Legend:
[1] = Degradation Example 1: oxidation with hydrogen peroxide, monitored by HPLC; assay type: physicochemical; conditions: after further addition of 10 μl of 30% H2O2, two hours at RT
Description: In order to check out the stability of the boranophosphates described in this invention towards oxidising conditions in comparison to the corresponding phosphorothioates, 0.1 μmol of the sodium salts of each, Rp-8-bromoadenosine-3′,5′-cyclic boranophosphate (Rp-8-Br-cAMPB, example 1), Sp-8-bromoadenosine-3′,5′-cyclic boranophosphate (Sp-8-Br-cAMPB, example 2), Rp-8-bromoadenosine-3′,5′-cyclic phosphorothioate (Rp-8-Br-cAMPS, Biolog) and Sp-8-bromoadenosine-3′,5′-cyclic phosphorothioate (Sp-8-Br-cAMPS, Biolog) were dissolved in 100 μl of eluent and the mixture was analyzed by HPLC (RP-18, 11% acetonitrile, 20 mM triethylammonium formate buffer, pH 6.1, 1.5 ml/min, UV 258 nm). The following elution profile was recorded: Rp-8-Br-cAMPS (5:13 min.)<Sp-8-Br-cAMPS (7:23 min.)<Sp-8-Br-cAMPB (9:13 min.)<Rp-8-Br-cAMPB ([…].).
Subsequently, aqueous hydrogen peroxide (Merck) was added in small portions while the stability of the four compounds was permanently monitored over time.
10 μl of H2O2 (0.3%) as well as 10 μl of 3% H2O2 were added to no effect.

[2] = biological target: protein kinase A type II alpha holoenzyme (Homo sapiens, UniProt P13861); assay: Photometric (Cook) assay with protein kinase A type II alpha holoenzyme; assay type: biochemical; conditions: for effect on protein kinase A type II alpha holoenzyme: photometric assay
Description: In another similar experiment the properties of Rp- and Sp-8-Br-cAMPB towards protein kinase A type II a were investigated in the photometric assay (Cook, P. F., Neville, M. E., Jr., Vrana, K. E., Hartl, F. T. and Roskoski, R., Jr., Biochemistry 21, 5794-5799 (1982))

protein kinase G I α = biological target: T1, protein kinase G I α (Homo sapiens, UniProt Q13976); assay: Protein kinase G I alpha activation, phosphotransferyl assay; assay type: biochemical; conditions: 10 nM, 100 nM and 1 μM
T1 sequence (Q13976 1-671): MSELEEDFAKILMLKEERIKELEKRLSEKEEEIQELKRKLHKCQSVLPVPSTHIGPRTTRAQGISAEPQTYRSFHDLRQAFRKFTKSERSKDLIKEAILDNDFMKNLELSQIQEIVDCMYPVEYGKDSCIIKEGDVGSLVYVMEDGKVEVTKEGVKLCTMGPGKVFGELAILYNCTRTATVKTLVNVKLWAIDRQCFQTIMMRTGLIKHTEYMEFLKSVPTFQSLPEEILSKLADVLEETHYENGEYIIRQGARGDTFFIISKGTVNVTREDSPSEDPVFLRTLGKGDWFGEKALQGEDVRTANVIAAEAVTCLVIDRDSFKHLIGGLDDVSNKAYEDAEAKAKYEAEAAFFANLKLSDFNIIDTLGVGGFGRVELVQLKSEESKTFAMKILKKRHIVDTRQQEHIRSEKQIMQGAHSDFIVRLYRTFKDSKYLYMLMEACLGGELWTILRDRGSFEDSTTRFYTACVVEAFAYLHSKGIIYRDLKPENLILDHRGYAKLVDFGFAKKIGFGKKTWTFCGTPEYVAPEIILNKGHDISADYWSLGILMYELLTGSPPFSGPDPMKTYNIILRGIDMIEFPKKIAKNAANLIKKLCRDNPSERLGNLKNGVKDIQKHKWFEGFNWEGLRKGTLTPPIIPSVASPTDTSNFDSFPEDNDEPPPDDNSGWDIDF
Description: Next, the activity profile of some cyclic boranophosphates disclosed in this invention has also been investigated on protein kinase G I α (FIGS. 8 and 9). Potential activatory potential towards the enzyme has been determined by a standard phosphotransferyl assay protocol according to Dostmann et al. (Dostmann, W. R.; Nickl, C.; Thiel, S.; Tsigelny, I.; Frank, R.; and Tegge, W. J., Pharmacol. Ther., 82, 373-387 (1999). FIG. 8 depicts the activity (μmol×min^−1×mg^−1) overview of six different cyclic boranophosphate analogues with protein kinase G type I at 10 nM, 100 nM and 1 μM. BLG-9108: […]; BLG-9110: Sp-8-Br-cAMPB; BLG-9111: Rp-8-Br-cAMPB; BLG-9112: Sp-8-Br-cGMPB; BLG-9113: Rp-8-Br-cGMPB; control: cyclic GMP.

Sequence of protein kinase A type II alpha holoenzyme (P13861 whole entry): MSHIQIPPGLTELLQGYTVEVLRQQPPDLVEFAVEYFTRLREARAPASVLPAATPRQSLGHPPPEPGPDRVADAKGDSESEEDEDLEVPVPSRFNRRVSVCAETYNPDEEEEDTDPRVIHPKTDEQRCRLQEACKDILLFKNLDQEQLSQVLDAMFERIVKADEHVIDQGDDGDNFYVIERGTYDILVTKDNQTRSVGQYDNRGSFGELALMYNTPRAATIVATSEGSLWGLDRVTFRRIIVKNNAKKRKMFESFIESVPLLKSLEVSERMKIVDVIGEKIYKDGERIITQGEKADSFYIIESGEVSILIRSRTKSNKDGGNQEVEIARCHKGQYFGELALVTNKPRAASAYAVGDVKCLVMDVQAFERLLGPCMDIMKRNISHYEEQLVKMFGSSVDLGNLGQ

Substance | HPLC signal area lost [1] | preference for protein kinase A type I over type II, factor ([2]; antagonist) | effect on protein kinase A type II alpha holoenzyme [2] | modulation of protein kinase G (protein kinase G I α)
8-Bromoadenosine-3′,5′-cyclic boranophosphate, Sp-isomer [Sp-8-Br-cAMPB] | 35% | 14 | only moderately antagonistic | as potent or even better as guanine related compounds
8-Bromoadenosine-3′,5′-cyclic boranophosphate, Rp-isomer [Rp-8-Br-cAMPB] | 35% |  | even higher activation potential | as potent or even better as guanine related compounds

— patent publication US9487553B2, “Boranophosphate analogues of cyclic nucleotides” (BIOLOG LIFE SCIENCE INSTITUTE FORSCHUNGSLABOR UND …, priority 2011, dated 2016)
